What was measured:
[1] = target: T1, juvenile hormone esterase (JHE) of Heliothis virescens, wild type (Heliothis virescens, UniProt P12992); assay: Kinetics of juvenile hormone hydrolysis by juvenile hormone esterase; format: biochemical
T1 sequence (P12992 20-564): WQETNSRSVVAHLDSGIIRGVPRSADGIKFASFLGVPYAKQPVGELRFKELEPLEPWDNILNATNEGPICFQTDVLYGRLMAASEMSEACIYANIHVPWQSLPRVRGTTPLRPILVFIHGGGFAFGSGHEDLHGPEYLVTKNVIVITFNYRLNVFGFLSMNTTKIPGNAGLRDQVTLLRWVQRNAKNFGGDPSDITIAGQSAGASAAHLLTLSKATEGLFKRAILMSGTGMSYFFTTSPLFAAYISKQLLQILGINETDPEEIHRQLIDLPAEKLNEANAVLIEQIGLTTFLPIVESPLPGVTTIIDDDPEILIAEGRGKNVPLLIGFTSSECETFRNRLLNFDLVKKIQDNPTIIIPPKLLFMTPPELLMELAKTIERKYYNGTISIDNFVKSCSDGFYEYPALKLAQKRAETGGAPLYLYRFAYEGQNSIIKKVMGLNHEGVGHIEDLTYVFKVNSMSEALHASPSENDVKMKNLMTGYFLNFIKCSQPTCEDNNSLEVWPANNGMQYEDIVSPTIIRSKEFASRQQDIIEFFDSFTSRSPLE

[2] = target: T2, juvenile hormone hemolymph carrier protein of H. virescens (Heliothis virescens, UniProt Q25175); assay: Binding of juvenile hormone by the hemolymph carrier protein; details: juvenile hormone bound by the carrier protein; for H. virescens
T2 sequence (Q25175 19-242): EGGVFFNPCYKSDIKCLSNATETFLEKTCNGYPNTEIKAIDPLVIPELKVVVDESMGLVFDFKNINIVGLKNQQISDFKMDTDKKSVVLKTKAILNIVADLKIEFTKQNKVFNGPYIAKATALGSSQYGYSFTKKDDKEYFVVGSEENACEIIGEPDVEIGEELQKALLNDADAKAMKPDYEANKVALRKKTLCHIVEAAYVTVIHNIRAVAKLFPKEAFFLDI

## juvenile hormone
[1]; substrate JH, JHE of H. virescens and of several other species
  kCAT/KM ratio: > 10^8
[1]; substrate juvenile hormone
  Km: 0.06 µM
[2]
  Kd: 0.61 µM

Source: patent US5643776A, “Insect diagnostic and control compositions” (The Regents of the University of California, priority 1992, dated 1997)
